Target: T1, FLK-1 receptor (Mus musculus, UniProt P35918)
T1 construct: expressed in transfected cells; host or cells: NIH3T3 C7#3
Experiment: FLK-1 ELISA (kinase activity of the FLK-1 receptor in FLK-1/NIH3T3 cells, VEGF stimulated)
Type: cell-based
Set-up: concentration or dose not given beside the values
Method in brief: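 An ELISA using affinity-purified rabbit anti-FLK-1 antiserum on anti-rabbit IgG-coated plates measured VEGF-stimulated FLK-1 kinase activity. NIH3T3 C7#3 cells carrying FLK-1 were serum-starved (0.1% FBS) overnight, then exposed to compound (final 1:200 dilution, 0.5% DMSO) for two hours at 37 °C.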

T1 sequence (P35918 20-1345): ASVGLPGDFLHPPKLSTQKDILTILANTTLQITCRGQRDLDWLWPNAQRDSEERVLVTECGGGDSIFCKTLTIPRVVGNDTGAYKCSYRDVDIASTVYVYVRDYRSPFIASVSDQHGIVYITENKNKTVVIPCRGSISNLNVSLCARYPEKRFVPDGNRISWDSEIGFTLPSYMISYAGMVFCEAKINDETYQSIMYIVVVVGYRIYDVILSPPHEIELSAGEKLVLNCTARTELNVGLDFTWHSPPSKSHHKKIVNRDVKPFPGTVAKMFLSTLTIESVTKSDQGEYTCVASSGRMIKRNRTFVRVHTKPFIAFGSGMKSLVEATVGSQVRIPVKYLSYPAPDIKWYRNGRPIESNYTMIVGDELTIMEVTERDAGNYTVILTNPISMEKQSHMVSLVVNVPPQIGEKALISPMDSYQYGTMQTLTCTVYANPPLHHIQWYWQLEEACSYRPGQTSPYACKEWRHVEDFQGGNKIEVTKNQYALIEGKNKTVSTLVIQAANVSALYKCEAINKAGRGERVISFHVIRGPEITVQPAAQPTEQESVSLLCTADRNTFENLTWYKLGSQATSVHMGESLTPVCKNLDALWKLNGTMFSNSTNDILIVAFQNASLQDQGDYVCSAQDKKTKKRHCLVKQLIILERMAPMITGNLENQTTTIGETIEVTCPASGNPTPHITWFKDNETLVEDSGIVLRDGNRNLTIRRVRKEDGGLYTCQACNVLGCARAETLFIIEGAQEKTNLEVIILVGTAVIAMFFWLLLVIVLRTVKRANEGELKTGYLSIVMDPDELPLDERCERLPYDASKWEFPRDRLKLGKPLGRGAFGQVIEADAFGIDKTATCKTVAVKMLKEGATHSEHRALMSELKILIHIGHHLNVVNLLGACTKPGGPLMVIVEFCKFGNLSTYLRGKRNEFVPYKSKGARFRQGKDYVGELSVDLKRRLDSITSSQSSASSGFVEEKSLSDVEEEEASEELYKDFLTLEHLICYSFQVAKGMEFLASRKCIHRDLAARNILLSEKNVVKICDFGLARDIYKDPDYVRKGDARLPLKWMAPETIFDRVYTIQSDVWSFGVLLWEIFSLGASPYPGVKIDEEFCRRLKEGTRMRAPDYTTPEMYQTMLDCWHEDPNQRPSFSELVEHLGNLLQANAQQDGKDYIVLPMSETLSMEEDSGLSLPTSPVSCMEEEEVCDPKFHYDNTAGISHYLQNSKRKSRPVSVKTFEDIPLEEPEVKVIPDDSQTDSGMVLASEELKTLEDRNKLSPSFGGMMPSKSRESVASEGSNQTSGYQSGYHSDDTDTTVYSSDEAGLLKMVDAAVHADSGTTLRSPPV

In the case of Cc1c(Br)ccc2c1C(=Cc1cc3ccccc3nc1Cl)C(=O)N2 [10730/C08], the “Fik Kinase %Inhibition” value is reported as -2.3%.

For COc1cc(OC)c(OC)cc1C=C1C(=O)Nc2c(Br)cc(Br)cc21 [10730/A03], the “Fik Kinase %Inhibition” value was -3.2%.

In the case of CSc1ccc(C=C2C(=O)Nc3ccc(CCCl)cc32)cc1 [10729/G04], the “Fik Kinase %Inhibition” value is reported as 12.2%.

With COC(=O)c1[nH]c(C)c(C=C2C(=O)Nc3ccc(I)cc32)c1C(=O)OC [10718/B07] the “Fik Kinase %Inhibition” value was 17.7%.

For CC(=O)n1cc(C=C2C(=O)Nc3c(Br)cc(Br)cc32)c2ccccc21 [10730/A05], the “Fik Kinase %Inhibition” value was -10.8%.

In the case of COc1ccc(C=C2C(=O)Nc3ccc(I)cc32)c(OC)c1OC [10730/B02], the “Fik Kinase %Inhibition” value is reported as 5.0%.

In the case of O=C1Nc2ccc(S(=O)(=O)Nc3ccc(C(F)(F)F)cc3)cc2C1=Cc1ccc(N2CCCC2)cc1 [10729/E10], the “Fik Kinase %Inhibition” value is reported as 5.7%.

For Cc1cc(C=C2C(=O)Nc3c(Br)cc(Br)cc32)oc1C [10730/A11], the “Fik Kinase %Inhibition” value was 6.8%.

In the case of CC(=O)n1cc(C=C2C(=O)Nc3ccc(I)cc32)c2ccccc21 [10730/B05], the “Fik Kinase %Inhibition” value is reported as -0.5%.

For O=C1Nc2ccc(I)cc2C1=Cc1cc2ccccc2nc1Cl [10730/B08], the “Fik Kinase %Inhibition” value was 4.4%.

With COc1cc(C=C2C(=O)Nc3ccc(S(=O)(=O)N4CCOCC4)cc32)cc(OC)c1OC [10730/F04] the “Fik Kinase %Inhibition” value was 18.3%.

For O=C1Nc2c(Br)cc(Br)cc2C1=Cc1coc2ccc(Cl)cc2c1=O [10730/A06], the “Fik Kinase %Inhibition” value was -7.0%.

For COc1cc(C=C2C(=O)Nc3ccc(Br)c(C)c32)cc(OC)c1OC [10730/C04], the “Fik Kinase %Inhibition” value was 46.1%.

COC1CC(C=C2C(=O)Nc3c(Br)cc(Br)cc32)C(OC)O1 (stereo not shown) [10730/A10] was tested, and the “Fik Kinase %Inhibition” value was 0.5%.

In the case of Cc1cc(C=C2C(=O)Nc3ccc(Br)c(C)c32)oc1C [10730/C11], the “Fik Kinase %Inhibition” value is reported as -8.0%.

For CCOC(=O)c1c(C)[nH]c(C=C2C(=O)Nc3ccc(Br)c(C)c32)c1C [10718/C02], the “Fik Kinase %Inhibition” value was 26.2%.

CC(=O)n1cc(C=C2C(=O)Nc3ccc(S(=O)(=O)N4CCOCC4)cc32)c2ccccc21 [10730/F05] was tested, and the “Fik Kinase %Inhibition” value was 19.6%.

For Cc1c(Br)ccc2c1C(=Cc1coc3c(Br)cc(Br)cc3c1=O)C(=O)N2 [10730/C09], the “Fik Kinase %Inhibition” value was 14.0%.

For O=C1Nc2ccc(I)cc2C1=Cc1ccc(Cl)c([N+](=O)[O-])c1 [10718/B08], the “Fik Kinase %Inhibition” value was 5.4%.

With CC(=O)n1cc(C=C2C(=O)Nc3ccc(S(=O)(=O)Nc4ccc(C(F)(F)F)cc4)cc32)c2ccccc21 [10730/E05] the “Fik Kinase %Inhibition” value was 8.7%.

For Cc1cc(C=C2C(=O)Nc3ccc(I)cc32)oc1C [10730/B11], the “Fik Kinase %Inhibition” value was 1.9%.

COc1ccc(C=C2C(=O)Nc3c(Br)cc(Br)cc32)c(OC)c1OC [10730/A02] was tested, and the “Fik Kinase %Inhibition” value was -3.7%.

With O=C1Nc2ccc(I)cc2C1=Cc1coc2c(Br)cc(Br)cc2c1=O [10730/B09] the “Fik Kinase %Inhibition” value was 9.4%.

For Cc1ccsc1C=C1C(=O)Nc2ccc(CCCl)cc21 [10729/G05], the “Fik Kinase %Inhibition” value was 8.7%.

COC1CC(C=C2C(=O)Nc3ccc(S(=O)(=O)Nc4ccc(C(F)(F)F)cc4)cc32)C(OC)O1 (stereo not shown) [10730/E10] was tested, and the “Fik Kinase %Inhibition” value was 26.0%.

For O=C1Nc2ccc(S(=O)(=O)Nc3ccc(C(F)(F)F)cc3)cc2C1=Cc1coc2ccc(Cl)cc2c1=O [10730/E06], the “Fik Kinase %Inhibition” value was 11.1%.

CNS(=O)(=O)c1ccc2c(c1)C(=Cc1coc3c(Br)cc(Br)cc3c1=O)C(=O)N2 [10730/D09] was tested, and the “Fik Kinase %Inhibition” value was 9.8%.

In the case of COc1cc(OC)c(OC)cc1C=C1C(=O)Nc2ccc(S(=O)(=O)Nc3ccc(C(F)(F)F)cc3)cc21 [10730/E03], the “Fik Kinase %Inhibition” value is reported as 34.5%.

In the case of Cc1c(Br)ccc2c1C(=Cc1ccc3ccccc3c1O)C(=O)N2 [10718/C04], the “Fik Kinase %Inhibition” value is reported as 15.3%.

With CNS(=O)(=O)c1ccc2c(c1)C(=Cc1cc(OC)c(OC)cc1OC)C(=O)N2 [10730/D03] the “Fik Kinase %Inhibition” value was 8.4%.

O=C1Nc2ccc(I)cc2C1=Cc1coc2ccc(Cl)cc2c1=O [10730/B06] was tested, and the “Fik Kinase %Inhibition” value was 2.4%.

With CNS(=O)(=O)c1ccc2c(c1)C(=Cc1cc3ccccc3nc1Cl)C(=O)N2 [10730/D08] the “Fik Kinase %Inhibition” value was 8.6%.

For COC1CC(C=C2C(=O)Nc3ccc(Br)c(C)c32)C(OC)O1 (stereo not shown) [10730/C10], the “Fik Kinase %Inhibition” value was 15.4%.

For COc1cc(OC)c(OC)cc1C=C1C(=O)Nc2ccc(S(=O)(=O)N3CCOCC3)cc21 [10730/F03], the “Fik Kinase %Inhibition” value was 11.7%.

With COC1CC(C=C2C(=O)Nc3ccc(I)cc32)C(OC)O1 (stereo not shown) [10730/B10] the “Fik Kinase %Inhibition” value was 15.2%.

In the case of CNS(=O)(=O)c1ccc2c(c1)C(=Cc1ccc(OC)c(OC)c1OC)C(=O)N2 [10730/D02], the “Fik Kinase %Inhibition” value is reported as 12.4%.

COc1cc(OC)c(OC)cc1C=C1C(=O)Nc2ccc(Br)c(C)c21 [10730/C03] was tested, and the “Fik Kinase %Inhibition” value was 25.5%.

In the case of O=C1Nc2ccc(S(=O)(=O)N3CCOCC3)cc2C1=Cc1coc2ccc(Cl)cc2c1=O [10730/F06], the “Fik Kinase %Inhibition” value is reported as 21.9%.

COc1cc(C=C2C(=O)Nc3c(Br)cc(Br)cc32)cc(OC)c1OC [10730/A04] was tested, and the “Fik Kinase %Inhibition” value was -9.9%.

In the case of CNS(=O)(=O)c1ccc2c(c1)C(=CC1CC(OC)OC1OC)C(=O)N2 (stereo not shown) [10730/D10], the “Fik Kinase %Inhibition” value is reported as -15.3%.

O=C1Nc2ccc(S(=O)(=O)Nc3ccc(C(F)(F)F)cc3)cc2C1=Cc1cc2ccccc2nc1Cl [10730/E08] was tested, and the “Fik Kinase %Inhibition” value was 25.1%.

O=C1Nc2ccc(CCCl)cc2C1=Cc1cccc(Oc2ccccc2)c1 [10729/G06] was tested, and the “Fik Kinase %Inhibition” value was 10.9%.

With O=C1Nc2c(Br)cc(Br)cc2C1=Cc1coc2c(Br)cc(Br)cc2c1=O [10730/A09] the “Fik Kinase %Inhibition” value was 1.9%.

In the case of COc1ccc(C=C2C(=O)Nc3ccc(S(=O)(=O)N4CCOCC4)cc32)c(OC)c1OC [10730/F02], the “Fik Kinase %Inhibition” value is reported as 18.4%.

In the case of O=C1Nc2ccc(CCCl)cc2C1=Cc1ccccn1 [10729/G07], the “Fik Kinase %Inhibition” value is reported as -2.5%.

For COc1ccc(C=C2C(=O)Nc3ccc(CCCl)cc32)c2ccccc12 [10729/G03], the “Fik Kinase %Inhibition” value was 10.4%.

For O=C1Nc2ccc(CCCl)cc2C1=CC1C=CCCC1 (stereo not shown) [10729/G11], the “Fik Kinase %Inhibition” value was -0.5%.

CNS(=O)(=O)c1ccc2c(c1)C(=Cc1cc(C)c(C)o1)C(=O)N2 [10730/D11] was tested, and the “Fik Kinase %Inhibition” value was 7.7%.

Cc1c(Br)ccc2c1C(=Cc1ccc(-c3ccccc3Cl)o1)C(=O)N2 [10730/C07] was tested, and the “Fik Kinase %Inhibition” value was 7.3%.

For CNS(=O)(=O)c1ccc2c(c1)C(=Cc1ccc(-c3ccccc3Cl)o1)C(=O)N2 [10730/D07], the “Fik Kinase %Inhibition” value was 8.8%.

In the case of O=C1Nc2ccc(I)cc2C1=Cc1ccc(-c2ccccc2Cl)o1 [10730/B07], the “Fik Kinase %Inhibition” value is reported as 0.6%.

With O=C1Nc2c(Br)cc(Br)cc2C1=Cc1cc2ccccc2nc1Cl [10730/A08] the “Fik Kinase %Inhibition” value was -2.9%.

For O=C1Nc2ccc(S(=O)(=O)Nc3ccc(C(F)(F)F)cc3)cc2C1=Cc1ccc(-c2ccccc2Cl)o1 [10730/E07], the “Fik Kinase %Inhibition” value was 12.0%.

With O=C1Nc2c(Br)cc(Br)cc2C1=Cc1ccc(Br)cc1 [10717/A08] the “Fik Kinase %Inhibition” value was -5.2%.

CNS(=O)(=O)c1ccc2c(c1)C(=Cc1cn(C(C)=O)c3ccccc13)C(=O)N2 [10730/D05] was tested, and the “Fik Kinase %Inhibition” value was 11.9%.

In the case of O=C1Nc2ccc(CCCl)cc2C1=Cc1ccc(N2CCCC2)cc1 [10729/G10], the “Fik Kinase %Inhibition” value is reported as -9.1%.

For O=C1Nc2ccc(S(=O)(=O)Nc3ccc(C(F)(F)F)cc3)cc2C1=Cc1cccnc1 [10729/E08], the “Fik Kinase %Inhibition” value was 10.9%.

COc1cc(C=C2C(=O)Nc3ccc(I)cc32)cc(OC)c1OC [10730/B04] was tested, and the “Fik Kinase %Inhibition” value was 12.8%.

For O=C1Nc2ccc(S(=O)(=O)Nc3ccc(C(F)(F)F)cc3)cc2C1=Cc1coc2c(Br)cc(Br)cc2c1=O [10730/E09], the “Fik Kinase %Inhibition” value was 21.8%.

With O=C1Nc2ccc(S(=O)(=O)Nc3ccc(C(F)(F)F)cc3)cc2C1=CC1C=CCCC1 (stereo not shown) [10729/E11] the “Fik Kinase %Inhibition” value was 70.9%.

In the case of O=C1Nc2ccc(S(=O)(=O)Nc3ccc(C(F)(F)F)cc3)cc2C1=Cc1ccncc1 [10729/E09], the “Fik Kinase %Inhibition” value is reported as 6.9%.

For COc1ccc2ccccc2c1C=C1C(=O)Nc2ccc(CCCl)cc21 [10729/G02], the “Fik Kinase %Inhibition” value was 18.8%.

COc1cc(Br)c(O)c(C=C2C(=O)Nc3ccc(Br)c(C)c32)c1 [10718/C03] was tested, and the “Fik Kinase %Inhibition” value was -13.9%.

With O=C1Nc2ccc(S(=O)(=O)N3CCOCC3)cc2C1=Cc1cc2ccccc2nc1Cl [10730/F08] the “Fik Kinase %Inhibition” value was 2.1%.

In the case of CNS(=O)(=O)c1ccc2c(c1)C(=Cc1coc3ccc(Cl)cc3c1=O)C(=O)N2 [10730/D06], the “Fik Kinase %Inhibition” value is reported as 5.8%.

For O=C1Nc2ccc(CCCl)cc2C1=Cc1ccncc1 [10729/G09], the “Fik Kinase %Inhibition” value was -3.3%.

COc1cc(C=C2C(=O)Nc3ccc(S(=O)(=O)Nc4ccc(C(F)(F)F)cc4)cc32)cc(OC)c1OC [10730/E04] was tested, and the “Fik Kinase %Inhibition” value was 22.1%.

With CC(=O)n1cc(C=C2C(=O)Nc3ccc(Br)c(C)c32)c2ccccc21 [10730/C05] the “Fik Kinase %Inhibition” value was 11.4%.

With COc1ccc(C=C2C(=O)Nc3ccc(S(=O)(=O)Nc4ccc(C(F)(F)F)cc4)cc32)c(OC)c1OC [10730/E02] the “Fik Kinase %Inhibition” value was 24.8%.

For O=C1Nc2ccc(S(=O)(=O)N3CCOCC3)cc2C1=Cc1ccc(-c2ccccc2Cl)o1 [10730/F07], the “Fik Kinase %Inhibition” value was 67.5%.

With Cc1cc(C=C2C(=O)Nc3ccc(S(=O)(=O)Nc4ccc(C(F)(F)F)cc4)cc32)oc1C [10730/E11] the “Fik Kinase %Inhibition” value was 29.1%.

CNS(=O)(=O)c1ccc2c(c1)C(=Cc1cc(OC)c(OC)c(OC)c1)C(=O)N2 [10730/D04] was tested, and the “Fik Kinase %Inhibition” value was 9.1%.

For O=C1Nc2c(Br)cc(Br)cc2C1=Cc1ccc(-c2ccccc2Cl)o1 [10730/A07], the “Fik Kinase %Inhibition” value was -18.9%.

Cc1c(O)ccc(C=C2C(=O)Nc3ccc(I)cc32)c1O [10718/B09] was tested, and the “Fik Kinase %Inhibition” value was -14.7%.

With COc1ccc(C=C2C(=O)Nc3ccc(Br)c(C)c32)c(OC)c1OC [10730/C02] the “Fik Kinase %Inhibition” value was 48.8%.

With Cc1c(Br)ccc2c1C(=Cc1coc3ccc(Cl)cc3c1=O)C(=O)N2 [10730/C06] the “Fik Kinase %Inhibition” value was 5.3%.

For O=C1Nc2ccc(CCCl)cc2C1=Cc1cccnc1 [10729/G08], the “Fik Kinase %Inhibition” value was -1.0%.

In the case of O=C1Nc2ccc(I)cc2C1=Cc1ccc([N+](=O)[O-])o1 [10718/B11], the “Fik Kinase %Inhibition” value is reported as 4.5%.

For COc1cc(OC)c(OC)cc1C=C1C(=O)Nc2ccc(I)cc21 [10730/B03], the “Fik Kinase %Inhibition” value was -0.5%.

Reference: patent EP1247803A2, “Indolinone compounds suitable for modulation of protein kinases” (Sugen, Inc., priority 1996, dated 1998)
